Results as given in patent US12331018B2, “Pyrrolidine orexin receptor agonists” (Merck Sharp & Dohme LLC, priority 2019, dated 2025).

Biological target: T1, human OX2R (Homo sapiens, UniProt O43614)
T1 construct: expressed in transfected cells; host or cells: CHO (Chinese hamster ovary) cells, grown under G418 selection
T1 sequence (O43614 1-444): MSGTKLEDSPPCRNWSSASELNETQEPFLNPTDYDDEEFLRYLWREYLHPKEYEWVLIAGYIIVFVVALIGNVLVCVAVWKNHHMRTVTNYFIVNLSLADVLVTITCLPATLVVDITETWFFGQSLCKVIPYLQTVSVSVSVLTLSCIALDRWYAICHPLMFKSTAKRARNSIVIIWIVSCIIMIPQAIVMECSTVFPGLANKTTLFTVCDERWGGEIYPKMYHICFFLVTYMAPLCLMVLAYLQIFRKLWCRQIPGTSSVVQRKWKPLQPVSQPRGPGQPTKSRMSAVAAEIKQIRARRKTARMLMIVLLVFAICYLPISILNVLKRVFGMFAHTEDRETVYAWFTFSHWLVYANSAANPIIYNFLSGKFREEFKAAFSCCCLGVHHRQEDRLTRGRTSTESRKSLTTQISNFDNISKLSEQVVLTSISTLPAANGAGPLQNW
Experiment: IPOne (IP-1 accumulation) assay in CHO cells expressing human OX2R
Format: cell-based
Conditions: for EC50: CHO cells expressing human OX2R, IP-One assay, 2 hours incubation, four parameter logistic fit, read-out: OX2R Potency, EC50; for Emax, % of reference agonist: OX2R, percentage of sample raw value/mean max effect (reference compound at 1 uM with 100% activity)
Excerpt: The utility of the compounds in accordance with the present invention as orexin receptor OX1R and/or OX2R agonists may be readily determined without undue experimentation by methodology well known in the art. Both the OX1R and/or OX2R G-coupled protein receptors (GPCRs) couple through the Gaq signaling pathway, which ultimately promotes calcium mobilization via inositol triphosphate (IP3) production. The half-life of IP-3 is relatively short, being rapidly metabolized to inositol monophosphate (IP-1), which can be readily detected using a commercially available assay kit (IP-One; Cisbio; cat #621PAPEC) coupled with a cell line expressing the target receptor(s) of interest. The utility of the compounds in accordance with the present invention as orexin receptor OX1R and/or OX2R agonists may be determined utilizing this assay.
In a typical experiment, the OX1 and OX2 receptor agonist activity is determined in accordance with the following general experimental method. Chinese hamster ovary (CHO) cells expressing human OX1R and/or the human OX2R were grown in Iscove's modified DMEM containing glutaMAX™, 1% G418, 100 U/mL penicillin, 100 μg/mL streptomycin and 10% heat-inactivated qualified fetal bovine serum (FBS). The OX2R cells were seeded at 10,000 cells/well/50 μL and the OX1R cells were seeded at 20,000 cells/well/50 μL into 384-well white tissue culture plates (Greiner; cat #781080). All cell/media reagents were from GIBCO-Invitrogen Corp. The seeded cell plate(s) were incubated at 37° C. with 5% CO2 and 85% humidity for 20-24 hours. On the day of the assay, assay-ready compound plates were prepared using an acoustic liquid handler (ECHO; Labcyte), which dispensed sufficient volume of test compound stock (10 mM in DMSO) or 100% DMSO to prepare 10 point, ½-log dilutions in a final volume of 202.5 nL/well in all test wells of a 384-well diamond plate (Labcyte). Following completion of assay-ready plates, importantly, the next three steps were performed with minimal delay: 1) 20 μl of 1× stimulation buffer was added to the compound plate using a Multidrop Combi (small cassette, Thermo Fisher Scientific cat #24073290); 2) culture medium was removed from the cell plate using the Bluewasher plate washer (gentle spin; BlueCatBio); 3) 14 μl of compound/stimulation buffer mixture was added to the cell plate using a Bravo liquid handler (Agilent) prior to incubating cell plates at 37° C. with 5% CO2 and 85% humidity for 1 or 2 hours (OX1R and OX2R, respectively). During this incubation, IP-one detection reagents were prepared (38:1:1 lysis buffer:D2:AB-cryptate reagents). Six μL of mixed detection reagents were added to the cell plate using a Multidrop Combi (small cassette, Thermo Fisher Scientific cat #24073290) and incubated 60 minutes at room temperature in the dark. Fluorescence signal was detected using an Envision plate reader (Perkin Elmer) [LANCE/DELFIA Dual Enh (Em: APC 665; Ex: Cy5 620)].
For each compound, data were fit to a four parameter logistic fit (ActivityBase software) and the EC50 was reported as the inflection point of the resulting curve. Percent effect for each test compound was determined as the percentage of sample raw value/mean max effect, where the mean max effect was derived from the mean raw value of 32 control wells per assay plate (using Orexin A (cat #003-30) at 1 μM for human OX1R and a reference compound at 1 uM with 100% activity previously established by comparison to Orexin A for human OX2R). The intrinsic orexin receptor agonist activity of a compound which may be used in the present invention may be determined by these assays.

| SMILES | EC50 [nM] | Emax, % of reference agonist [%] |
| --- | --- | --- |
| CS(=O)(=O)N[C@H]1CCN(C(=O)NCC2CCC2)[C@H]1CO[C@H]1CC[C@@H](c2ccccc2)CC1 (relative stereo) [Example 21, (CIS)-N-(cyclobutylmethyl)-3-(methylsulfonamido)-2-((((CIS)-4-phenylcyclohexyl)oxy)-methyl)pyrrolidine-1-carboxamide] | 5.65 | 103.2 |
| CS(=O)(=O)N[C@H]1CCN(C(=O)NCC(F)(F)F)[C@H]1CO[C@H]1CC[C@@H](c2ccccc2)CC1 (relative stereo) [Example 10, (CIS)-3-(methylsulfonamido)-2-((((CIS)-4-phenylcyclohexyl)oxy)methyl)-N-(2,2,2-trifluoroethyl)pyrrolidine-1-carboxamide] | 3.65 | 103.7 |
| CS(=O)(=O)N[C@H]1CCN(C(=O)C2CC2)C1COC1CCC(c2ccccc2)CC1 (single isomer, unassigned) [Example 27] | 48.7 | 100.2 |
| CS(=O)(=O)N[C@H]1CCN(C(=O)OCC(F)F)[C@H]1CO[C@H]1CC[C@@H](c2ccccc2)CC1 (relative stereo) [Example 23, 2,2-difluoroethyl (CIS)-3-(methylsulfonamido)-2-((((CIS)-4-phenylcyclohexyl)oxy)methyl)-pyrrolidine-1-carboxylate] | 59.6 | 101.3 |
| COC(=O)N1CC[C@H](NS(C)(=O)=O)[C@@H]1CO[C@H]1CC[C@@H](c2ccccc2)CC1 [Example 11, methyl (2R,3S)-3-(methylsulfonamido)-2-((((CIS)-4-phenylcyclohexyl)oxy)methyl) pyrrolidine-1-carboxylate] | 115 | 100.2 |

Other lines, results leading:

| EC50 [nM] | Emax, % of reference agonist [%] | SMILES |
| --- | --- | --- |
| 299 | 99.8 | COC(=O)N1CC[C@@H](NS(=O)(=O)C2CC2)[C@H]1CO[C@H]1CC[C@@H](c2ccccc2)CC1 (relative stereo) [Example 15, methyl (CIS)-3-(cyclopropanesulfonamido)-2-((((CIS)-4-phenylcyclohexyl)oxy)methyl) pyrrolidine-1-carboxylate] |
| 328 | 96.4 | COC(=O)N1CC[C@H](NS(C)(=O)=O)[C@@H]1CO[C@H]1CC[C@@H](c2ccccc2)CC1 (relative stereo) [Example 2, methyl (CIS)-3-(methylsulfonamido)-2-((((CIS)-4-phenylcyclohexyl)oxy)-methyl)pyrrolidine-1-carboxylate] |
| 252 | 98.9 | CCOC(=O)N1CC[C@@H](NS(C)(=O)=O)[C@H]1CO[C@H]1CC[C@@H](c2ccccc2)CC1 (relative stereo) [Example 4, ethyl (CIS)-3-(methylsulfonamido)-2-((((CIS)-4-phenylcyclohexyl)oxy)methyl) pyrrolidine-1-carboxylate] |
| 361 | 103.3 | CS(=O)(=O)N[C@H]1CCN(C(=O)CO)[C@H]1CO[C@H]1CC[C@@H](c2ccccc2)CC1 (relative stereo) [Example 25, N-((CIS)-1-(2-hydroxyacetyl)-2-((((CIS)-4-phenylcyclohexyl)oxy)methyl)pyrrolidin-3-yl)methanesulfonamide] |
| 358 | 99.0 | COC(=O)N1CCC(NS(C)(=O)=O)[C@@H]1COC1CCC(C(C)C)CC1 (stereo in doubt) [Example 29, methyl (2R,3R)-2-(((4-isopropylcyclohexyl)oxy)methyl)-3-(methylsulfonamido)pyrrolidine-1-carboxylate] |
| 136 | 99.9 | CCS(=O)(=O)N[C@H]1CCN(C(=O)OC)[C@H]1CO[C@H]1CC[C@@H](c2ccccc2)CC1 (relative stereo) [Example 13, methyl (CIS)-3-(ethylsulfonamido)-2-((((CIS)-4-phenylcyclohexyl)oxy)methyl)pyrrolidine-1-carboxylate] |
